Results on 13 compounds are retold here after patent US20230091042A1, “SMARCA2-VHL DEGRADERS” (AMGEN INC., priority 2020, published 2023).

Test [1] deals with T1, SMARCA2 (Homo sapiens, UniProt P51531).
T1 construct: endogenous in cells; host or cells: A375 cells (ATCC CRL-1619)
Description: SMARCA2 MSD assay in A375 cells (SMARCA2 degradation, 2 h). The class given is cell-based. The settings on record: 2 h compound treatment, N/C = no curve; for DC50: read-out: A375 SMARCA2 MSD IC50 IP. As to the method: (§1) SMARCA2 and SMARCA4 MSD Assays in A375 Cells:
A375 cells (ATCC® CRL-1619™) were cultured in RPMI 1640 Medium (ThermoFisher Scientific 11875093) containing 10% fetal bovine serum (ThermoFisher Scientific 16000044) and 1× penicillin-streptomycin-glutamine (ThermoFisher Scientific 10378016). Sixteen hours prior to compound treatment, cells were seeded in 96-well cell culture plates (Corning 3904) at a density of 2.5×10^5 cells/well (90 uL/well) and incubated at 37° C., 5% CO2. A 1:3 compound dose-response titration was diluted in growth media (1:20), added to appropriate wells of a cell culture plate (1:10) and then assay plates were incubated at 37° C., 5% CO2. After 2 h of compound treatment, cells were lysed in MSD lysis buffer (MSD R60TX-2) containing protease (Roche 04693116001) and phosphatase (Roche 04906837001) inhibitors.
. Plates were washed with 300 μL per well MSD wash buffer (MSD R61TX-1) between each step. Following the last incubation, plates were washed with MSD wash buffer then 150 uL of MSD read buffer (MSD R92TC-2) was added to each well. Plates were immediately read on a MSD plate reader (MSD Sector Imager 6000) and data was analyzed using a 4-parameter logistic model to calculate IC50 values.

The target of test [2] is T2, SMARCA4 (Homo sapiens, UniProt P51532).
T2 construct: After 2 h of compound treatment, cells were lysed in MSD lysis buffer; endogenous in cells; host or cells: A375 cells (ATCC CRL-1619)
Description: SMARCA4 MSD assay in A375 cells (SMARCA4 degradation, 2 h). The class given is cell-based. The settings on record: 2 h compound treatment, N/C = no curve. As to the method: as §1
A 1:3 compound dose-response titration was diluted in growth media (1:20), added to appropriate wells of a cell culture plate (1:10) and then assay plates were incubated at 37° C., 5% CO2.
Plates were washed with 300 μL per well MSD wash buffer (MSD R61TX-1) between each step. Following the last incubation, plates were washed with MSD wash buffer then 150 uL of MSD read buffer (MSD R92TC-2) was added to each well. Plates were immediately read on a MSD plate reader (MSD Sector Imager 6000) and data was analyzed using a 4-parameter logistic model to calculate IC50 values.

T1 sequence (P51531 whole entry): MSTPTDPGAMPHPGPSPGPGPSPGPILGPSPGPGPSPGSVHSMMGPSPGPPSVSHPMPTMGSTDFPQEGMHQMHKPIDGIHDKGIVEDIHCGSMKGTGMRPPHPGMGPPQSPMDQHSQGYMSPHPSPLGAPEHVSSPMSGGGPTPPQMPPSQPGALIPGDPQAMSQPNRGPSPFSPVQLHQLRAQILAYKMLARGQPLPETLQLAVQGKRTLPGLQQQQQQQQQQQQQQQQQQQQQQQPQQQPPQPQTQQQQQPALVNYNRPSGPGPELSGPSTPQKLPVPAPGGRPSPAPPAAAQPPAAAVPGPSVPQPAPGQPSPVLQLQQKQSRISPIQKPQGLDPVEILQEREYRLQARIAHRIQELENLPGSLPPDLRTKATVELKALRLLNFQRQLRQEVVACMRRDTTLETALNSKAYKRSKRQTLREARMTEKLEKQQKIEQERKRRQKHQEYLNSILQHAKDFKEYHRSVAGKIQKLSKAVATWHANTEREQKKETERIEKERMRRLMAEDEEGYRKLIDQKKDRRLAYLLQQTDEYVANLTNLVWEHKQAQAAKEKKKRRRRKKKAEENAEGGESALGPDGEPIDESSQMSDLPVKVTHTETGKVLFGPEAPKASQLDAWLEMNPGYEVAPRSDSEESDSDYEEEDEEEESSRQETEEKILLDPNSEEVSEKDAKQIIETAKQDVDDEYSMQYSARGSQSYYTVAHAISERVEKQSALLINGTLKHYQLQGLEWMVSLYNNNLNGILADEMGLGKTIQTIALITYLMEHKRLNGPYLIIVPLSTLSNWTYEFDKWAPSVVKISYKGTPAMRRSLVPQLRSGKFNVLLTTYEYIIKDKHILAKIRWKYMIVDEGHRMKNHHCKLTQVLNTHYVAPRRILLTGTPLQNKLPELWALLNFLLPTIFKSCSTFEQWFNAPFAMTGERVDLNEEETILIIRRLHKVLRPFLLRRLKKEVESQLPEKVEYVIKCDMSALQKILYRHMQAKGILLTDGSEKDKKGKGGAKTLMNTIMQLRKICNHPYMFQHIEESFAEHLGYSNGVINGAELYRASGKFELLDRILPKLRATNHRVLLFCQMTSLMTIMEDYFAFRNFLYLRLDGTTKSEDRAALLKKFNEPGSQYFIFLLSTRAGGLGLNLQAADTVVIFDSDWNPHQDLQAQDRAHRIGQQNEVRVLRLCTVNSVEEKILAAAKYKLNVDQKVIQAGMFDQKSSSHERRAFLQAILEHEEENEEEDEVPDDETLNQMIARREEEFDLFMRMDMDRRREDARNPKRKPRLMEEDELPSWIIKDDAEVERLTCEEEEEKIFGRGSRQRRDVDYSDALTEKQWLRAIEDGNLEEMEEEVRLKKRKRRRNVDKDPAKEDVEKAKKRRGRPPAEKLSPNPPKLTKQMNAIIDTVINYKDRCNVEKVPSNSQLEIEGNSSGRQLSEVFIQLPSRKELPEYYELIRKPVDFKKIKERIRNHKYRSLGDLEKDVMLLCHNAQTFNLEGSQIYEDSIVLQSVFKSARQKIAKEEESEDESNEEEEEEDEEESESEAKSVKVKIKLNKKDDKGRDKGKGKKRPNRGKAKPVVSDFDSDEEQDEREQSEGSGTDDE
T2 sequence (P51532 whole entry): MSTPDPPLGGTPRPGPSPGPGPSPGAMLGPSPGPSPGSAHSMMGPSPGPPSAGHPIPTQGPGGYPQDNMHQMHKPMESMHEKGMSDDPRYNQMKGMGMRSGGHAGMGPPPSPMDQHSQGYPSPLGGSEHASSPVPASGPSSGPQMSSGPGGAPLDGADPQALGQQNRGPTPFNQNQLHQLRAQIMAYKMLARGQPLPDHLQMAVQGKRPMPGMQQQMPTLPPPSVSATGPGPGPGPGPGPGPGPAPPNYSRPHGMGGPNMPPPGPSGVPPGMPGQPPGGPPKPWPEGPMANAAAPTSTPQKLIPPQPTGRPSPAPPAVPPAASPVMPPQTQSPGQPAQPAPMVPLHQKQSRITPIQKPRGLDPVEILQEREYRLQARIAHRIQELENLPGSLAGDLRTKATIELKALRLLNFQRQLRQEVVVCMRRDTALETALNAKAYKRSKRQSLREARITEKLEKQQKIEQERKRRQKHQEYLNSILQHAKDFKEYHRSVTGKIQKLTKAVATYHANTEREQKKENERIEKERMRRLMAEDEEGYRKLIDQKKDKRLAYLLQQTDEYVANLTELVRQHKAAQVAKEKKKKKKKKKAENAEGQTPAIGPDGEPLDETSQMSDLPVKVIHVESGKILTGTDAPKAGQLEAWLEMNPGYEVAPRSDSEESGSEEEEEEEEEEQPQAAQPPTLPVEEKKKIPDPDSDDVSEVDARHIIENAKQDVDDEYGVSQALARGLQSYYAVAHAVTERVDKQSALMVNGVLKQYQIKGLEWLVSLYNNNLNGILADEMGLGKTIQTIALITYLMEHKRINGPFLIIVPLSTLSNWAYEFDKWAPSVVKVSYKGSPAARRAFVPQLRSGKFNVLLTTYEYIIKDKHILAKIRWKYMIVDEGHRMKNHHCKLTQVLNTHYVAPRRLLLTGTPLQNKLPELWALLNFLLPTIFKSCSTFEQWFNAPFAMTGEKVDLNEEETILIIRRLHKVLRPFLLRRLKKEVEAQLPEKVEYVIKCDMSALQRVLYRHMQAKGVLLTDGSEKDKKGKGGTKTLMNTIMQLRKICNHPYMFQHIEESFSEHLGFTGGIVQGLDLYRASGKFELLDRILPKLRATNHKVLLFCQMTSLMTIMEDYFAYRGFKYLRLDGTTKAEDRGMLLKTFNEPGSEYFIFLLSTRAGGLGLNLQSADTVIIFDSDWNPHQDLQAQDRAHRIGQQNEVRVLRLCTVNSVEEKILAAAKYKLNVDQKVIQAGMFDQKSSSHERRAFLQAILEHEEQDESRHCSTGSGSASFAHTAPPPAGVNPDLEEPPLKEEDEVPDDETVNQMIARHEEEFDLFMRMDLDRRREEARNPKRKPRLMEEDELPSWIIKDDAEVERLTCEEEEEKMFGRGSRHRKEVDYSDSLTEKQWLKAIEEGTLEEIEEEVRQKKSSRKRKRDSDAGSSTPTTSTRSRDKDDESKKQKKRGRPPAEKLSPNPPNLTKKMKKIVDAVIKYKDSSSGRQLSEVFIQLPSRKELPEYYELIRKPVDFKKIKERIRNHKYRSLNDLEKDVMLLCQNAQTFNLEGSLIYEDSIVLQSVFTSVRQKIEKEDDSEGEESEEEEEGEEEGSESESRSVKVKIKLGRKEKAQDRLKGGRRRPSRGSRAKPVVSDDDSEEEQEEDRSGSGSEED

As for `Cc1ncsc1-c1ccc(CNC(=O)[C@@H]2C[C@@H](O)CN2C(=O)[C@@H](NC(=O)c2ccnc(N3CCN(c4cc(-c5ccccc5O)nnc4N)CC3)c2)C(C)(C)C)cc1` [Example 1, 2-(4-(3-Amino-6-(2-hydroxyphenyl)pyridazin-4-yl)piperazin-1-yl)-N—((S)-1-((2S,4R)-4-hydroxy-2-((4-(4-methylthiazol-5-yl)benzyl)carbamoyl)pyrrolidin-1-yl)-3,3-dimethyl-1-oxobutan-2-yl)isonicotinamide], the DC50 in test [1] was determined as 110 nM.
In the case of `Cc1ncsc1-c1ccc([C@H](C)NC(=O)[C@@H]2C[C@@H](O)CN2C(=O)[C@@H](NC(=O)c2cccc(N3CCN(c4cc(-c5ccccc5O)nnc4N)CC3)n2)C(C)(C)C)cc1` [Example 2, 6-(4-(3-Amino-6-(2-hydroxyphenyl)pyridazin-4-yl)piperazin-1-yl)-N—((S)-1-((2S,4R)-4-hydroxy-2-(((S)-1-(4-(4-methylthiazol-5-yl)phenyl)ethyl)carbamoyl)pyrrolidin-1-yl)-3,3-dimethyl-1-oxobutan-2-yl)picolinamide], the DC50 in test [1] turned out to be 120 nM.
Consider `Cc1ncsc1-c1ccc([C@H](C)NC(=O)[C@@H]2C[C@@H](O)CN2C(=O)[C@@H](NC(=O)c2ccnc(N3CCN(c4cc(-c5ccccc5O)nnc4N)CC3)c2)C(C)(C)C)cc1` [Example 3, 2-(4-(3-Amino-6-(2-hydroxyphenyl)pyridazin-4-yl)piperazin-1-yl)-N—((S)-1-((2S,4R)-4-hydroxy-2-(((S)-1-(4-(4-methylthiazol-5-yl)phenyl)ethyl)carbamoyl)pyrrolidin-1-yl)-3,3-dimethyl-1-oxobutan-2-yl)isonicotinamide], for which, in test [1], the DC50 came to 43 nM.
`Cc1ncsc1-c1ccc([C@H](C)NC(=O)[C@@H]2C[C@@H](O)CN2C(=O)[C@@H](NC(=O)c2cccc(N3CCN(c4cc(-c5ccccc5O)nnc4N)CC3)c2)C(C)(C)C)cc1` [Example 4, (2S,4R)-1-((S)-2-(3-(4-(3-Amino-6-(2-hydroxyphenyl)pyridazin-4-yl)piperazin-1-yl)benzamido)-3,3-dimethylbutanoyl)-4-hydroxy-N—((S)-1-(4-(4-methylthiazol-5-yl)phenyl)ethyl)pyrrolidine-2-carboxamide]: in test [1], the DC50 turned out to be 22 nM.
Turning to `Cc1ncsc1-c1ccc([C@H](C)NC(=O)[C@@H]2C[C@@H](O)CN2C(=O)[C@@H](NC(=O)c2csc(N3CCN(c4cc(-c5ccccc5O)nnc4N)CC3)n2)C(C)(C)C)cc1` [Example 5, 2-(4-(3-Amino-6-(2-hydroxyphenyl)pyridazin-4-yl)piperazin-1-yl)-N—((S)-1-((2S,4R)-4-hydroxy-2-(((S)-1-(4-(4-methylthiazol-5-yl)phenyl)ethyl)carbamoyl)pyrrolidin-1-yl)-3,3-dimethyl-1-oxobutan-2-yl)thiazole-4-carboxamide], the DC50 in test [1] was 150 nM.
Same read-out and setting: the figure for `Cc1ncsc1-c1ccc([C@H](C)NC(=O)[C@@H]2C[C@@H](O)CN2C(=O)[C@@H](NC(=O)c2ccc(N3CCN(c4cc(-c5ccccc5O)nnc4N)CC3)s2)C(C)(C)C)cc1` [Example 6, (2S,4R)-1-((S)-2-(5-(4-(3-Amino-6-(2-hydroxyphenyl)pyridazin-4-yl)piperazin-1-yl)thiophene-2-carboxamido)-3,3-dimethylbutanoyl)-4-hydroxy-N—((S)-1-(4-(4-methylthiazol-5-yl)phenyl)ethyl)pyrrolidine-2-carboxamide] is 190 nM.
For `Cc1ncsc1-c1ccc([C@H](C)NC(=O)[C@@H]2C[C@@H](O)CN2C(=O)[C@@H](NC(=O)c2ccc(N3CCN(c4cc(-c5ccccc5O)nnc4N)CC3)nc2)C(C)(C)C)cc1` [Example 7, 6-(4-(3-Amino-6-(2-hydroxyphenyl)pyridazin-4-yl)piperazin-1-yl)-N—((S)-1-((2S,4R)-4-hydroxy-2-(((S)-1-(4-(4-methylthiazol-5-yl)phenyl)ethyl)carbamoyl)pyrrolidin-1-yl)-3,3-dimethyl-1-oxobutan-2-yl)nicotinamide], the “A375 SMARCA2 MSD IC50 IP” value in test [1] is recorded as “N/C”. Moreover, the “A375 SMARCA4 MSD IC50 IP” value in test [2] was “N/C”.
Consider `Cc1ncsc1-c1ccc([C@H](C)NC(=O)[C@@H]2C[C@@H](O)CN2C(=O)[C@@H](NC(=O)Cc2ccnc(N3CCN(c4cc(-c5ccccc5O)nnc4N)CC3)c2)C(C)(C)C)cc1` [Example 8, (2S,4R)-1-((S)-2-(2-(2-(4-(3-Amino-6-(2-hydroxyphenyl)pyridazin-4-yl)piperazin-1-yl)pyridin-4-yl)acetamido)-3,3-dimethylbutanoyl)-4-hydroxy-N—((S)-1-(4-(4-methylthiazol-5-yl)phenyl)ethyl)pyrrolidine-2-carboxamide], for which the “A375 SMARCA2 MSD IC50 IP” value in test [1] is reported as “N/C”. The “A375 SMARCA4 MSD IC50 IP” value in test [2] is given as “N/C”.
As for `Cc1ncsc1-c1ccc([C@H](C)NC(=O)[C@@H]2C[C@@H](O)CN2C(=O)[C@@H](NC(=O)CCc2ccnc(N3CCN(c4cc(-c5ccccc5O)nnc4N)CC3)c2)C(C)(C)C)cc1` [Example 9, (2S,4R)-1-((S)-2-(3-(2-(4-(3-Amino-6-(2-hydroxyphenyl)pyridazin-4-yl)piperazin-1-yl)pyridin-4-yl)propanamido)-3,3-dimethylbutanoyl)-4-hydroxy-N—((S)-1-(4-(4-methylthiazol-5-yl)phenyl)ethyl)pyrrolidine-2-carboxamide], the “A375 SMARCA2 MSD IC50 IP” value in test [1] is “N/C”. In addition, the “A375 SMARCA4 MSD IC50 IP” value in test [2] was “N/C”.
As for `Cc1ncsc1-c1ccc([C@H](C)NC(=O)[C@@H]2C[C@@H](O)CN2C(=O)[C@@H](NC(=O)c2cccc(N3CCN(c4nc(-c5ccccc5O)nnc4N)CC3)n2)C(C)(C)C)cc1` [Example 10, 6-(4-(6-Amino-3-(2-hydroxyphenyl)-1,2,4-triazin-5-yl)piperazin-1-yl)-N—((S)-1-((2S,4R)-4-hydroxy-2-(((S)-1-(4-(4-methylthiazol-5-yl)phenyl)ethyl)carbamoyl)pyrrolidin-1-yl)-3,3-dimethyl-1-oxobutan-2-yl)picolinamide], in test [1], the DC50 stood at 250 nM.
`Cc1ncsc1-c1ccc([C@H](C)NC(=O)[C@@H]2C[C@@H](O)CN2C(=O)[C@@H](NC(=O)c2ccnc(N3CCN(c4cnnc(-c5ccccc5O)c4)CC3)c2)C(C)(C)C)cc1` [Example 11, N—((S)-1-((2S,4R)-4-Hydroxy-2-(((S)-1-(4-(4-methylthiazol-5-yl)phenyl)ethyl)carbamoyl)pyrrolidin-1-yl)-3,3-dimethyl-1-oxobutan-2-yl)-2-(4-(6-(2-hydroxyphenyl)pyridazin-4-yl)piperazin-1-yl)isonicotinamide]: in test [1], the DC50 is 350 nM. In addition, the “A375 SMARCA4 MSD IC50 IP” value in test [2] was “N/C”.
Turning to `Cc1ncsc1-c1ccc([C@H](C)NC(=O)[C@@H]2C[C@@H](O)CN2C(=O)[C@@H](NC(=O)CN2CCN(c3cc(-c4ccccc4O)nnc3N)CC2)C(C)(C)C)cc1` [compound 1, (2S,4R)-1-((S)-2-(2-(4-(3-Amino-6-(2-hydroxyphenyl)pyridazin-4-yl)piperazin-1-yl)acetamido)-3,3-dimethylbutanoyl)-4-hydroxy-N—((S)-1-(4-(4-methylthiazol-5-yl)phenyl)ethyl)pyrrolidine-2-carboxamide, reference compound], the DC50 in test [1] came out at 250 nM; in test [2] (read-out: A375 SMARCA4 MSD IC50 IP) it was 840 nM.
With `Cc1ncsc1-c1ccc([C@H](C)NC(=O)[C@@H]2C[C@@H](O)CN2C(=O)[C@@H](NC(=O)CN2CCN(c3cc(-c4cccc(F)c4O)nnc3N)CC2)C(C)(C)C)cc1` [compound 2, (2S,4R)-1-((S)-2-(2-(4-(3-Amino-6-(3-fluoro-2-hydroxyphenyl)pyridazin-4-yl)piperazin-1-yl)acetamido)-3,3-dimethylbutanoyl)-4-hydroxy-N—((S)-1-(4-(4-methylthiazol-5-yl)phenyl)ethyl)pyrrolidine-2-carboxamide, reference compound], the DC50 in test [1] came to 420 nM.
